Laboratory results: BigSolDB 2.1

Question: For O.O=c1c(O)c(-c2ccc(O)cc2)oc2cc(O)cc(O)c12, which solubility (mole fraction) (in ethanol, 283.15 K) is on record?
Answer: 0.00668

Question: And the solubility (mole fraction) (in ethanol, 288.15 K)?
Answer: 0.00812

Question: And the solubility (mole fraction) (in ethanol, 293.15 K)?
Answer: 0.00993

Question: What about the solubility (mole fraction) (in ethanol, 298.15 K) of the same molecule?
Answer: 0.0121

Question: What about the solubility (mole fraction) (in ethanol, 303.15 K) of the same molecule?
Answer: 0.0146

Question: And the solubility (mole fraction) (in ethanol, 308.15 K)?
Answer: 0.0178

Question: What about the solubility (mole fraction) (in ethanol, 313.15 K) of the same molecule?
Answer: 0.0212

Question: And the solubility (mole fraction) (in ethanol, 318.15 K)?
Answer: 0.025

Question: And the solubility (mole fraction) (in ethanol, 323.15 K)?
Answer: 0.0295

Question: And the solubility (mole fraction) (in isopropanol, 283.15 K)?
Answer: 0.00356

Question: What about the solubility (mole fraction) (in isopropanol, 288.15 K) of the same molecule?
Answer: 0.00502

Question: What about the solubility (mole fraction) (in isopropanol, 293.15 K) of the same molecule?
Answer: 0.00676

Question: What about the solubility (mole fraction) (in isopropanol, 298.15 K) of the same molecule?
Answer: 0.00907

Question: And the solubility (mole fraction) (in isopropanol, 303.15 K)?
Answer: 0.0126

Question: What about the solubility (mole fraction) (in isopropanol, 308.15 K) of the same molecule?
Answer: 0.0171

Question: And the solubility (mole fraction) (in isopropanol, 313.15 K)?
Answer: 0.0222

Question: What about the solubility (mole fraction) (in isopropanol, 318.25 K) of the same molecule?
Answer: 0.0281

Question: What about the solubility (mole fraction) (in isopropanol, 323.15 K) of the same molecule?
Answer: 0.036

Question: And the solubility (mole fraction) (in n-butanol, 283.15 K)?
Answer: 0.00626

Question: And the solubility (mole fraction) (in n-butanol, 288.15 K)?
Answer: 0.00772

Question: And the solubility (mole fraction) (in n-butanol, 293.15 K)?
Answer: 0.00935

Question: What about the solubility (mole fraction) (in n-butanol, 298.15 K) of the same molecule?
Answer: 0.0113

Question: What about the solubility (mole fraction) (in n-butanol, 303.15 K) of the same molecule?
Answer: 0.0137

Question: And the solubility (mole fraction) (in n-butanol, 308.15 K)?
Answer: 0.0164

Question: What about the solubility (mole fraction) (in n-butanol, 313.15 K) of the same molecule?
Answer: 0.0197

Question: And the solubility (mole fraction) (in n-butanol, 318.15 K)?
Answer: 0.0236

Question: What about the solubility (mole fraction) (in n-butanol, 323.15 K) of the same molecule?
Answer: 0.028

Question: What about the solubility (mole fraction) (in n-propanol, 283.15 K) of the same molecule?
Answer: 0.00621

Question: What about the solubility (mole fraction) (in n-propanol, 288.15 K) of the same molecule?
Answer: 0.00727

Question: And the solubility (mole fraction) (in n-propanol, 293.15 K)?
Answer: 0.00861

Question: What about the solubility (mole fraction) (in n-propanol, 298.15 K) of the same molecule?
Answer: 0.0103

Question: And the solubility (mole fraction) (in n-propanol, 303.15 K)?
Answer: 0.0121

Question: And the solubility (mole fraction) (in n-propanol, 308.15 K)?
Answer: 0.014

Question: And the solubility (mole fraction) (in n-propanol, 313.15 K)?
Answer: 0.0162

Question: What about the solubility (mole fraction) (in n-propanol, 318.15 K) of the same molecule?
Answer: 0.0188

Question: What about the solubility (mole fraction) (in n-propanol, 323.15 K) of the same molecule?
Answer: 0.0217

Question: And the solubility (mole fraction) (in sec-butanol, 283.15 K)?
Answer: 0.00599

Question: And the solubility (mole fraction) (in sec-butanol, 288.15 K)?
Answer: 0.00758

Question: And the solubility (mole fraction) (in sec-butanol, 293.15 K)?
Answer: 0.00926

Question: What about the solubility (mole fraction) (in sec-butanol, 298.15 K) of the same molecule?
Answer: 0.0114

Question: And the solubility (mole fraction) (in sec-butanol, 303.15 K)?
Answer: 0.0138

Question: What about the solubility (mole fraction) (in sec-butanol, 308.15 K) of the same molecule?
Answer: 0.0164

Question: What about the solubility (mole fraction) (in sec-butanol, 313.15 K) of the same molecule?
Answer: 0.0196

Question: And the solubility (mole fraction) (in sec-butanol, 318.15 K)?
Answer: 0.0236

Question: What about the solubility (mole fraction) (in sec-butanol, 323.15 K) of the same molecule?
Answer: 0.0285
